# Test results published in US9469650B2, “Melampomagnolide B derivatives” (BOARD OF TRUSTEES OF THE UNIVERSITY OF ARKANSAS, priority 2013, dated 2016).
# What was measured:
# [1] = tested on: IGROV1; experiment: panel of 60 human tumor cell lines, growth inhibition (Ovarian Cancer); details: IGROVI
# [2] = tested on: T-47D; experiment: panel of 60 human tumor cell lines, growth inhibition (Breast Cancer); details: T-47D
# [3] = tested on: NCI/ADR-RES; experiment: panel of 60 human tumor cell lines, growth inhibition (Ovarian Cancer)
# [4] = tested on: SW-620; experiment: panel of 60 human tumor cell lines, growth inhibition (Colon Cancer); details: SW-620
# [5] = tested on: SNB-75; experiment: panel of 60 human tumor cell lines, growth inhibition (CNS Cancer); details: SNB-75
# [6] = tested on: MCF7; experiment: panel of 60 human tumor cell lines, growth inhibition (Breast Cancer); details: MCF7
# [7] = tested on: HS 578T; experiment: as above; details: HS 578T
# [8] = tested on: CAKI-1; experiment: panel of 60 human tumor cell lines, growth inhibition (Renal Cancer); details: CAKI-1
# [9] = tested on: HCC-2998; experiment: panel of 60 human tumor cell lines, growth inhibition (Colon Cancer); details: HCC-2998
# [10] = tested on: HCT-116; experiment: as above; details: HCT-116
compound,measurement,setting,value
C=C1C(=O)O[C@H]2[C@H]1CC/C(COC(=O)N1CCC(F)(F)CC1)=C\CC[C@@]1(C)O[C@@H]21 [JVM 2-66],GI50,[1],2310 nM
same,TGI,[1],7.26E−6
same,Percent Growth,[1]; Log10 Concentration −4.0,−60%
same,Percent Growth,[1]; Log10 Concentration −5.0,−14%
same,Percent Growth,[1]; Log10 Concentration −6.0,87%
same,Percent Growth,[1]; Log10 Concentration −7.0,106%
same,Percent Growth,[1]; Log10 Concentration −8.0,107%
same,GI50,[2],3070 nM
same,TGI,[2],1.64E−5
same,Percent Growth,[2]; Log10 Concentration −4.0,−45%
same,Percent Growth,[2]; Log10 Concentration −5.0,13%
same,Percent Growth,[2]; Log10 Concentration −6.0,86%
same,Percent Growth,[2]; Log10 Concentration −7.0,84%
same,Percent Growth,[2]; Log10 Concentration −8.0,93%
same,GI50,[3],5220 nM
same,TGI,[3],2.08E−5
same,Percent Growth,[3]; Log10 Concentration −4.0,−65%
same,Percent Growth,[3]; Log10 Concentration −5.0,30%
same,Percent Growth,[3]; Log10 Concentration −6.0,99%
same,Percent Growth,[3]; Log10 Concentration −7.0,99%
same,Percent Growth,[3]; Log10 Concentration −8.0,100%
same,GI50,[4],1460 nM
same,TGI,[4],4.37E−6
same,Percent Growth,[4]; Log10 Concentration −4.0,−86%
same,Percent Growth,[4]; Log10 Concentration −5.0,−38%
same,Percent Growth,[4]; Log10 Concentration −6.0,67%
same,Percent Growth,[4]; Log10 Concentration −7.0,97%
same,Percent Growth,[4]; Log10 Concentration −8.0,99%
same,GI50,[5],6130 nM
same,TGI,[5],2.03E−5
same,Percent Growth,[5]; Log10 Concentration −4.0,−95%
same,Percent Growth,[5]; Log10 Concentration −5.0,42%
same,Percent Growth,[5]; Log10 Concentration −6.0,79%
same,Percent Growth,[5]; Log10 Concentration −7.0,75%
same,Percent Growth,[5]; Log10 Concentration −8.0,87%
same,GI50,[6],1620 nM
same,TGI,[6],4.91E−6
same,Percent Growth,[6]; Log10 Concentration −4.0,−75%
same,Percent Growth,[6]; Log10 Concentration −5.0,−32%
same,Percent Growth,[6]; Log10 Concentration −6.0,72%
same,Percent Growth,[6]; Log10 Concentration −7.0,83%
same,Percent Growth,[6]; Log10 Concentration −8.0,89%
same,GI50,[7],13500 nM
same,TGI,[7],7.06E−5
same,Percent Growth,[7]; Log10 Concentration −4.0,−10%
same,Percent Growth,[7]; Log10 Concentration −5.0,59%
same,Percent Growth,[7]; Log10 Concentration −6.0,89%
same,Percent Growth,[7]; Log10 Concentration −7.0,93%
same,Percent Growth,[7]; Log10 Concentration −8.0,93%
same,GI50,[8],2030 nM
same,TGI,[8],6.16E−6
same,Percent Growth,[8]; Log10 Concentration −4.0,−97%
same,Percent Growth,[8]; Log10 Concentration −5.0,−22%
same,Percent Growth,[8]; Log10 Concentration −6.0,82%
same,Percent Growth,[8]; Log10 Concentration −7.0,91%
same,Percent Growth,[8]; Log10 Concentration −8.0,97%
same,GI50,[9],6240 nM
same,TGI,[9],2.11E−5
same,Percent Growth,[9]; Log10 Concentration −4.0,−77%
same,Percent Growth,[9]; Log10 Concentration −5.0,37%
same,Percent Growth,[9]; Log10 Concentration −6.0,101%
same,Percent Growth,[9]; Log10 Concentration −7.0,91%
same,Percent Growth,[9]; Log10 Concentration −8.0,96%
same,GI50,[10],1410 nM
same,TGI,[10],3.30E−6
same,Percent Growth,[10]; Log10 Concentration −4.0,−100%
